Test results reported in ChEMBL document CHEMBL5291721, “A preclinical secondary pharmacology resource illuminates target-adverse drug reaction associations of marketed drugs” (Nat Commun, 2023).

What was measured:
Adenosine receptor A1 = target: T1, Adenosine receptor A1 (Homo sapiens, UniProt P30542)
T1 sequence (P30542 whole entry): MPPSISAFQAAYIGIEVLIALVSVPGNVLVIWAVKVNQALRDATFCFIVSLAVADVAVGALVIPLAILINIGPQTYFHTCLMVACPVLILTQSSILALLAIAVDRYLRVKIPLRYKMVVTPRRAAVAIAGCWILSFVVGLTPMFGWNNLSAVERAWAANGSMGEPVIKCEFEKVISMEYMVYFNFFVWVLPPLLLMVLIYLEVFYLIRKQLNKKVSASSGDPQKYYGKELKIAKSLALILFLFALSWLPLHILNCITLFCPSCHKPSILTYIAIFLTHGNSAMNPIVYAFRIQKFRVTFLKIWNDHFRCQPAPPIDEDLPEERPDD

Motilin receptor = Motilin receptor (Homo sapiens, UniProt O43193)
Sequence of Motilin receptor (O43193 whole entry): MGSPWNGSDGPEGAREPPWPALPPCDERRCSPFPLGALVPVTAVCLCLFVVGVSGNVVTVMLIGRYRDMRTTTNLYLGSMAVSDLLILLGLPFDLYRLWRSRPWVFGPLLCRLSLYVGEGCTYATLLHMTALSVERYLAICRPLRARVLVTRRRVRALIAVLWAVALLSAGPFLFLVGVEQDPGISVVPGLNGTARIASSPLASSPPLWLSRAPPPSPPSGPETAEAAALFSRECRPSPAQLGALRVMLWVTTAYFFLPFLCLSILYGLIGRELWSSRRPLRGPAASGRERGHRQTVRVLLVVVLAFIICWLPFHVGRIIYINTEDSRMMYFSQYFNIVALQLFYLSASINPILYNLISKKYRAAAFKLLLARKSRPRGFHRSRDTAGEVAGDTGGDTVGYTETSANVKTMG

Progesterone receptor = target: T2, Progesterone receptor (Homo sapiens, UniProt P06401); format: functional
T2 sequence (P06401 whole entry): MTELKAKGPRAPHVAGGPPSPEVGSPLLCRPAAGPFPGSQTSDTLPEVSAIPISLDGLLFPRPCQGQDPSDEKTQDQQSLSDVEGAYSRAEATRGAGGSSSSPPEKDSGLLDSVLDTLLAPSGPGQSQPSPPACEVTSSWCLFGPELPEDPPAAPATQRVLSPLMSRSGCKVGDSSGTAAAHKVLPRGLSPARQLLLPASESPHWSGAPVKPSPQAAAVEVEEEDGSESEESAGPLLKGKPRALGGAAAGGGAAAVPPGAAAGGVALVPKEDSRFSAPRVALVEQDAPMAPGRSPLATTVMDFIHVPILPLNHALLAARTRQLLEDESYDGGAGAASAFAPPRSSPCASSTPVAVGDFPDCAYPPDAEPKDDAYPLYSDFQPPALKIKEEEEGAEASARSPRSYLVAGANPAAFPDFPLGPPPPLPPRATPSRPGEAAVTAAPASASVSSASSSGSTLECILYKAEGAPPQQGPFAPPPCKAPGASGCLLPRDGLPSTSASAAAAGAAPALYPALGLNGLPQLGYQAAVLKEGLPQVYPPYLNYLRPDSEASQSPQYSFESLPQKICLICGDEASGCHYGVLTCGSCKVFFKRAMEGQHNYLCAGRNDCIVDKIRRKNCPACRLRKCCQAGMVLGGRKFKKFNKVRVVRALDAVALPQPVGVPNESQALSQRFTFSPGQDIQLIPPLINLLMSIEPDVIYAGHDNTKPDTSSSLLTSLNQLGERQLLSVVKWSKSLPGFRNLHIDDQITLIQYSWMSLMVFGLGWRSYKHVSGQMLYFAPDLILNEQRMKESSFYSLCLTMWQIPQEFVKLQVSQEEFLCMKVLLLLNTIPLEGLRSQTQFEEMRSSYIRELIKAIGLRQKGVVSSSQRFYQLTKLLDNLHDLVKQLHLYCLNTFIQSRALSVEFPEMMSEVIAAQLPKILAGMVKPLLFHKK

[1] = target: 5-hydroxytryptamine receptor 2B (Homo sapiens, UniProt P41595); format: functional, cell-based
Sequence of 5-hydroxytryptamine receptor 2B (P41595 whole entry): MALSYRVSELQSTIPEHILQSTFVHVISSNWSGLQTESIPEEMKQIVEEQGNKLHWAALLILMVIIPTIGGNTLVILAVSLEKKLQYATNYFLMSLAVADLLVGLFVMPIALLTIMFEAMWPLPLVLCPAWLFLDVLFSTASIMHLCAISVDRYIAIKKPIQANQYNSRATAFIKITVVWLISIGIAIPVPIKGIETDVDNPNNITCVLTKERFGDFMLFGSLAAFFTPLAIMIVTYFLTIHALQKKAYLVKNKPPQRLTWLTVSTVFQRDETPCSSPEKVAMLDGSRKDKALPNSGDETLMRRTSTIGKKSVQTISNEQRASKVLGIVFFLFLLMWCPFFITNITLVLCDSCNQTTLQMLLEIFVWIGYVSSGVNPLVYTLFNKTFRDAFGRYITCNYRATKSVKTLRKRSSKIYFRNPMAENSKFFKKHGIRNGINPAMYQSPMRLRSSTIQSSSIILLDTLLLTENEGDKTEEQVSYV

[2] = target: T3, Muscarinic acetylcholine receptor M2 (Homo sapiens, UniProt P08172); format: functional, cell-based
T3 sequence (P08172 whole entry): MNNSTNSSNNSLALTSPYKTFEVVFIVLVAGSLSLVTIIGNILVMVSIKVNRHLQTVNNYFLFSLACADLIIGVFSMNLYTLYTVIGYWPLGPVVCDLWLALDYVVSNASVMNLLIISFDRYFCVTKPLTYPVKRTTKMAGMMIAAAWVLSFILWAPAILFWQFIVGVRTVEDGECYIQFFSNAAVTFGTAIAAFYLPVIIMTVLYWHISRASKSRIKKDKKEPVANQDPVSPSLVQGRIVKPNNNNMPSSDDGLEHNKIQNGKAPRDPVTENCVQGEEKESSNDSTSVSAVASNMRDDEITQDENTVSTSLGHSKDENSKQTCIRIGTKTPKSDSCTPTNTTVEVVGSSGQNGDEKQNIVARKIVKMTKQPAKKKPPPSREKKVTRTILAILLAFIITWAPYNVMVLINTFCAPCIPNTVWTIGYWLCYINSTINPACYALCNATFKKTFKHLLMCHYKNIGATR

[3] = target: Sodium-dependent dopamine transporter (Homo sapiens, UniProt Q01959)
Sequence of Sodium-dependent dopamine transporter (Q01959 whole entry): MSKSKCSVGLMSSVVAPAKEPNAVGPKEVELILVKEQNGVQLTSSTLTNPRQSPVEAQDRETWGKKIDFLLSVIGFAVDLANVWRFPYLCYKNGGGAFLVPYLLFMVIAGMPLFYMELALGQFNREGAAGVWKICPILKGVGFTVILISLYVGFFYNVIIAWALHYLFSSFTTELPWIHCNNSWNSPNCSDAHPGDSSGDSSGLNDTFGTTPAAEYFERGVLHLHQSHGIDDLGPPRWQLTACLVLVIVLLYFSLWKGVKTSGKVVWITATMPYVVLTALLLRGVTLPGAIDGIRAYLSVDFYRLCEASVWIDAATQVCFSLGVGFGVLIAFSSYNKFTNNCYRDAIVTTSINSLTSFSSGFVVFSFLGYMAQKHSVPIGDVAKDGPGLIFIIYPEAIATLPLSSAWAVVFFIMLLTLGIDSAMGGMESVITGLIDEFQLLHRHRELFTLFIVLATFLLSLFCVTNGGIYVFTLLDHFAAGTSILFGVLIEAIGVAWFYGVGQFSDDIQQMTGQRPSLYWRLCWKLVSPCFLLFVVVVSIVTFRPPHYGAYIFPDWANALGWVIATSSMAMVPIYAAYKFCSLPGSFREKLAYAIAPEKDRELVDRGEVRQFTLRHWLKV

Adenosine receptor A3 = target: T4, Adenosine receptor A3 (Homo sapiens, UniProt P0DMS8)
T4 sequence (P0DMS8 whole entry): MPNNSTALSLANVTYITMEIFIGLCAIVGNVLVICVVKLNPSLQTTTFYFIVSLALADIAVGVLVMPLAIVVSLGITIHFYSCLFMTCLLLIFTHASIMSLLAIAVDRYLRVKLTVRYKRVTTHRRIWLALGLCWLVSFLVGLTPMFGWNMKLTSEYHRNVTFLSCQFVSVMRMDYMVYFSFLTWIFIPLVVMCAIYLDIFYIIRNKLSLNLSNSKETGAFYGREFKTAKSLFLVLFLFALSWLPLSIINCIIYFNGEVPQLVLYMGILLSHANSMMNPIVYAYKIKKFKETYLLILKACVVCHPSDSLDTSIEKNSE

[4] = target: Sodium-dependent noradrenaline transporter (Homo sapiens, UniProt P23975)
Sequence of Sodium-dependent noradrenaline transporter (P23975 whole entry): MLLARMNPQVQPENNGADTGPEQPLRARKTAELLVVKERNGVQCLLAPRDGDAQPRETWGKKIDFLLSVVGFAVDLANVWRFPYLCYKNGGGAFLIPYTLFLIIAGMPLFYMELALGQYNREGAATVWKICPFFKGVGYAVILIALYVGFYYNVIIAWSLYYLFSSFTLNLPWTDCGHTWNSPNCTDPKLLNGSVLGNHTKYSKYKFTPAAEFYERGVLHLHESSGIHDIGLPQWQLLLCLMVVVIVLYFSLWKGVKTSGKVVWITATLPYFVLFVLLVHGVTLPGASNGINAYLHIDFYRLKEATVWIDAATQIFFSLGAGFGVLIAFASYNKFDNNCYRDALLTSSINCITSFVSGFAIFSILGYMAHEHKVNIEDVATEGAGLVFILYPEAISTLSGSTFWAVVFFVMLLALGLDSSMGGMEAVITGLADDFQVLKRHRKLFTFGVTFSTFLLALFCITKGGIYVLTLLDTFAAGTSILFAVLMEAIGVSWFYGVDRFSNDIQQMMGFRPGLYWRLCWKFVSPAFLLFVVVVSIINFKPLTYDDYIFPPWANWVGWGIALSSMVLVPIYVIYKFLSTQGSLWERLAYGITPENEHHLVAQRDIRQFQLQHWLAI

[5] = target: T5, 5-hydroxytryptamine receptor 2C (Homo sapiens, UniProt P28335)
T5 sequence (P28335 whole entry): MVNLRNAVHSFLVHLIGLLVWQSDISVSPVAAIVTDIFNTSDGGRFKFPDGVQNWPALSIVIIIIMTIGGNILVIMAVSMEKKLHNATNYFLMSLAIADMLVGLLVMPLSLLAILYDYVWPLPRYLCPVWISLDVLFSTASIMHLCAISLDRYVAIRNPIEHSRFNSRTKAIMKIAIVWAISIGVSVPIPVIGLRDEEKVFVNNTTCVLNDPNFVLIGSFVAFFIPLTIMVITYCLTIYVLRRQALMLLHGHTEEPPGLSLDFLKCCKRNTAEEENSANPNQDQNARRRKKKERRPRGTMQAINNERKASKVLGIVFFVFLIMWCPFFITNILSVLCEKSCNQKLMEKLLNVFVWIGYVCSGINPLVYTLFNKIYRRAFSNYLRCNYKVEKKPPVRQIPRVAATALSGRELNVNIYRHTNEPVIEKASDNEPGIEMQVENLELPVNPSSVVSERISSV

Histamine H3 receptor = Histamine H3 receptor (Homo sapiens, UniProt Q9Y5N1)
Sequence of Histamine H3 receptor (Q9Y5N1 whole entry): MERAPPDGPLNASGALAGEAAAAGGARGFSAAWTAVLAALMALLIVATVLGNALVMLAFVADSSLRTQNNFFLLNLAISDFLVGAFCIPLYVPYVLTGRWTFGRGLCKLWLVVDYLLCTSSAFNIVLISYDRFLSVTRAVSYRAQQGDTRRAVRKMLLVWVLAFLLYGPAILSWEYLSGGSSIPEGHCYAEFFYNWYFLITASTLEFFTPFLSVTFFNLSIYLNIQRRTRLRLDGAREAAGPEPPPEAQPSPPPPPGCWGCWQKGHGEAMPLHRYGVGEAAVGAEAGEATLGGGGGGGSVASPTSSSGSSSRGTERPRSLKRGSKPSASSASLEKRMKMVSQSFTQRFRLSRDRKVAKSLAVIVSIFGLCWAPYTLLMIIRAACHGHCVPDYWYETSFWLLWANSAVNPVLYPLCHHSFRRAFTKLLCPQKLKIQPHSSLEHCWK
Further: assay procedure not described here.

| SMILES | AC50 (Adenosine receptor A1) [µM] | AC50 (Motilin receptor) [µM] | AC50 (Progesterone receptor) [µM] | AC50 [1] [µM] | AC50 [2] [µM] | AC50 [3] [µM] | AC50 (Adenosine receptor A3) [µM] | AC50 [4] [µM] | AC50 [5] [µM] | AC50 (Histamine H3 receptor) [µM] |
| --- | --- | --- | --- | --- | --- | --- | --- | --- | --- | --- |
| COc1ccc2cc(CCC(C)=O)ccc2c1 [NABUMETONE] | > 10 | > 10 | > 10 | > 10 | > 10 | 7.8 | > 10 | 20 | > 30 | – |
| O=C(c1cc(Cc2n[nH]c(=O)c3ccccc23)ccc1F)N1CCN(C(=O)C2CC2)CC1 [OLAPARIB] | 11.9 | > 30 | > 30 | > 10 | > 10 | > 30 | > 30 | > 30 | > 30 | – |
| NC(=O)NC(=O)Cc1ccccc1 [PHENACEMIDE] | > 10 | > 10 | > 10 | > 10 | > 10 | > 10 | > 10 | > 10 | > 30 | – |
| c1ccc(C2(N3CCCCC3)CCCCC2)cc1 [PHENCYCLIDINE] | > 30 | > 30 | > 30 | > 30 | > 30 | 2.6 | > 30 | 12 | – | > 30 |
| COc1cc(C(=O)OCc2cccc(COC(=O)c3cc(OC)c(OC)c(OC)c3)n2)cc(OC)c1OC [PIROZADIL] | > 30 | > 30 | > 30 | > 30 | > 30 | > 30 | > 30 | > 30 | – | > 30 |
| CCCN(CCC)S(=O)(=O)c1ccc(C(=O)O)cc1 [PROBENECID] | > 10 | > 10 | > 10 | > 10 | > 10 | > 10 | > 10 | > 10 | > 30 | – |
| CCc1nc(N)nc(N)c1-c1ccc(Cl)cc1 [PYRIMETHAMINE] | > 10 | > 10 | > 10 | 37 | > 10 | 2.2 | > 10 | > 30 | > 30 | – |
| CC1=C(/C=C/C(C)=C/C=C/C(C)=C/CO)C(C)(C)CCC1 [RETINOL] | > 10 | > 10 | > 30 | > 10 | > 10 | > 10 | > 10 | > 10 | > 30 | – |
| Cc1cc(C)nc(NS(=O)(=O)c2ccc(N)cc2)n1 [SULFAMETHAZINE] | > 10 | > 10 | > 10 | > 10 | > 10 | > 10 | > 10 | > 10 | > 30 | – |
| CCOC(=O)[C@@H](N)Cc1ccc(-c2cc(O[C@H](c3ccc(Cl)cc3-n3ccc(C)n3)C(F)(F)F)nc(N)n2)cc1 [TELOTRISTAT ETHYL] | > 30 | – | > 30 | > 30 | > 30 | 18 | 3.1 | 16 | > 30 | > 30 |
